Literature values as cited in patent US20060177392A1, “Oil-based composition for acne” (priority 2005, published 2006).

How the values were obtained:
[1] = typical dose 0.5 to 2 mg/kg body weight per 24 hours; human fetal abnormalities and spontaneous abortions
[2] = taken internally

Compound: CC1=C(/C=C/C(C)=C/C=C/C(C)=C\C(=O)O)C(C)(C)CCC1 [Accutane, 13-cis-retinoic acid]
- Teratogenicity [1]: often teratogenic

Compound: Vitamin A
- Single megadose that can induce brain swelling, headache, drowsiness, vomiting, and/or death ([2]; single megadose): 1,500,000 IU
- Sustained dose that may be toxic ([2]; sustained doses): over 50,000 IU
